Test results: patent US12195410B2, “Nitrapyrin compositions for enhancing nitrogen nutrient use efficiency and improving plant growth” (Verdesian Life Sciences U.S., LLC, priority 2018, dated 2025)

Key:
[1] = Formation of solutions of nitrapyrin salts at 20% w/w nitrapyrin and grading of solutions; type: physicochemical; parameters: key: 5: Fully dissolved; 4: Mostly dissolved; 3: Mostly not dissolved; 2: Not dissolved; 1: Additional precipitate
From the text: Example 2. Formation of Solutions of Nitrapyrin Salts and Grading of Solutions

[2] = Nitrapyrin volatilization, weight loss on heated balance at 100° C.; type: physicochemical; conditions: for weight as a percent of original weight: heated balance 100° C.
Protocol: Three materials were placed on a heated balance at 100° C. and had their weights observed every minute for 10 minutes, as a percent of original weight. The materials were: • 1. pure nitrapyrin, • 2. 25% w/w solution of nitrapyrin in sulfolane, and • 3. solution of 25% nitrapyrin salt with equimolar (on acid basis) amount of maleic-itaconic copolymer, also in sulfolane (nitrapyrin/polyanionic polymer salt).
Therefore, the disclosed nitrapyrin salts substantially reduce the volatilization of nitrapyrin.

[3] = solvent Rhodiasolv Polarclean (L)
[4] = solvent propylene carbonate (F)
[5] = solvent tripropylene glycol (E)

Structure (SMILES)	grading of solution ([1]; solvent Agnique AMD3L (I))	grading of solution ([1]; solvent Agnique AMD810 (H))	grading of solution ([1]; solvent PT250 (C))	grading of solution ([1]; solvent PT700 (B))	grading of solution ([1]; solvent Rhodiasolv ADMA10 (J))	grading of solution ([1]; solvent Rhodiasolv ADMA810 (K))	grading of solution [1, 3]	grading of solution ([1]; solvent dipropylene glycol (A))	grading of solution [1, 4]	grading of solution ([1]; solvent triacetin (G))	grading of solution ([1]; solvent triethylene glycol (D))	grading of solution [1, 5]	further results
CC(O)(P(=O)(O)O)P(=O)(O)O.Clc1cccc(C(Cl)(Cl)Cl)n1.Clc1cccc(C(Cl)(Cl)Cl)n1.Clc1cccc(C(Cl)(Cl)Cl)n1.Clc1cccc(C(Cl)(Cl)Cl)n1 [etidronic]	5	4	1	4	5	4	5	1	2	2	1	1	–
Clc1cccc(C(Cl)(Cl)Cl)n1.Clc1cccc(C(Cl)(Cl)Cl)n1.O=C(O)c1cccc(C(=O)O)c1 [isophthalic]	3	3	1	2	3	3	3	2	3	3	1	4	–
Clc1cccc(C(Cl)(Cl)Cl)n1.Clc1cccc(C(Cl)(Cl)Cl)n1.O=C(O)CC(O)C(=O)O [malic]	5	5	1	4	5	5	5	2	3	3	2	2	–
Clc1cccc(C(Cl)(Cl)Cl)n1 [nitrapyrin without solvent, Nitrapyrin]	–	–	–	–	–	–	–	–	–	–	–	–	weight as a percent of original weight ([2]; experiment time 0 min): 100.00%; weight as a percent of original weight ([2]; experiment time 1 min): 99.20%; weight as a percent of original weight ([2]; experiment time 2 min): 98.56%; weight as a percent of original weight ([2]; experiment time 3 min): 97.92%; weight as a percent of original weight ([2]; experiment time 4 min): 96.00%; weight as a percent of original weight ([2]; experiment time 5 min): 94.87%; weight as a percent of original weight ([2]; experiment time 6 min): 93.75%; weight as a percent of original weight ([2]; experiment time 7 min): 92.63%; weight as a percent of original weight ([2]; experiment time 8 min): 90.87%; weight as a percent of original weight ([2]; experiment time 9 min): 89.90%; weight as a percent of original weight ([2]; experiment time 10 min): 89.10%; nitrapyrin sulfolane volatility ratio, Delta 3-10 ([2]; nitrapyrin without solvent vs. solvent alone, 100° C., 3 to 10 min): 401%; nitrapyrin sulfolane volatility ratio, Delta 4-10 ([2]; nitrapyrin without solvent vs. solvent alone, 100° C., 4 to 10 min): 392%; nitrapyrin sulfolane volatility ratio, Delta 5-10 ([2]; nitrapyrin without solvent vs. solvent alone, 100° C., 5 to 10 min): 393%
O=C(O)CCC(=O)O [succinic]	5	5	1	4	5	5	5	3	3	2	2	3	–
O=C(O)C(O)C(O)C(=O)O (centres unmarked) [tartaric]	5	5	1	2	5	5	5	2	2	2	1	2	–
